How the values were obtained:
[1] = tested on: S. aureus ATCC15975 (MRSA); test: Time-killing assay; format: cell-based, Staphylococcus aureus; details: for killing kinetics / capacity, in words: 10 × MIC (brevibacillins 20 μg/ml; nisin 40 μg/ml)
Experimental: This assay was performed according to a previously described procedure ([Ling et al., 2015]; [Zhao et al., 2020b]). An overnight culture of cells [S. aureus ATCC15975 (MRSA)] was diluted 50-fold in MHB and incubated at 37°C with aeration at 220 rpm. Bacteria were grown to an OD600 of 0.5, and then, the concentration of cells was adjusted to ≈ 5 × 10^6 cells per ml. Bacteria were then challenged with nisin (40 μg/ml), brevibacillin (20 μg/ml), brevibacillin V (20 μg/ml), brevibacillin I (20 μg/ml), or brevibacillin 2V (20 μg/ml) in culture tubes at 37°C and 220 rpm (peptides at 10 × MIC, a desirable concentration at the site of infection). Bacteria not treated with peptides were used as negative controls. At desired time points, 200 μl aliquots were taken, centrifuged at 8,000 g for 2 min, and resuspended in 200 μl of MHB. 10-fold serially diluted samples were plated on MHA plates. After incubated at 37°C overnight, colonies were counted and c.f.u. per ml was calculated. Each experiment was performed in triplicate.

[2] = Pyrene-labeled Lipid II fluorescence quenching assay; format: binding; details: 50 μM DOPC LUVs with 0.5 mol % pyrene-labeled Lipid II, 20°C, ex 350 nm
Experimental: The effects of antibiotics on pyrene-labeled Lipid II were measured using 50 μm DOPC-based large unilamellar vesicles (LUVs) containing 0.5 mol % pyrene-labeled Lipid II ([Breukink et al., 2003]). Briefly, the LUVs were added to a quartz cuvette and titrated with nisin, brevibacillin, or brevibacillin 2V with stirring at 20°C. The fluorescence spectra were recorded between 360 and 600 nm (λex350 nm) using a Cary Eclipse Fluorescence Spectrophotometer (Agilent, United States).

[3] = Carboxyfluorescein leakage assay, DOPC LUVs with 0.1% Lipid II; details: peptide 100 nM; for membrane permeabilization (CF leakage), Lipid II containing LUVs: LUVs 5 μM, DOPC plus 0.1% Lipid II, 25 mM Tris-HCl, 150 mM NaCl, pH 7.5, ex 492/em 515 nm
Experimental: LUVs that contain DOPC or DOPC plus 0.1% Lipid II were prepared for a carboxyfluorescein (CF) leakage assay. The lipids were dried by a nitrogen stream and followed under vacuum for 2 h. After that, the lipids were hydrated by adding 25 mm Tris-HCl, 150 mm NaCl, and pH 7.5 containing 50 mm CF. The suspensions were frozen and thawed 10 times, followed by extrusion through 200nm membrane filters (Whatman Nuclepore, Track-Etch Membranes) 10 times. The excess dye was removed by loading vesicles on a spin column (Sephadex G50) for 2 min at 500 × g. Subsequently, the vesicles were diluted to 5 μm, and the brevibacillins-induced release of CF from the vesicles was monitored by measuring the increase in fluorescence intensity. The maximum fluorescence was reached by adding 10 μl of 20% Triton X-100. A Cary Eclipse Fluorescence Spectrophotometer (Agilent, United States) was used to determine the changes of fluorescence signals, and the excitation wavelength and emission wavelength were adjusted to 492 nm and 515 nm, respectively.

[4] = tested on: S. aureus (MRSA); test: Membrane permeability assay, concentration series (fluorescence microscopy); format: cell-based, Staphylococcus aureus; details: 15 min; for concentration needed to permeabilize virtually all cellular membranes: comparison of brevibacillin and brevibacillin 2V
Experimental: Staphylococcus aureus ATCC15975 (MRSA) was grown to an OD600 of 0.8. The culture was pelleted at 5,000 × g for 5 min and washed three times in 10 mm HEPES with 10 mm glucose (pH 7.2). After normalization of the cell density to an OD600 of 0.2 in 10 mm HEPES with 10 mm glucose (pH 7.2), a 2-fold MIC concentration of brevibacillins (4 μg/ml) or nisin (8 μg/ml) was added. At the same time, SYTO® 9 and propidium iodide (LIVE/DEAD Baclight Bacterial Viability Kit, Invitrogen) were added to the above cell suspensions. After incubation at room temperature for 15 min, peptides were removed and washed three times with 10 mm HEPES with 10 mm glucose (pH 7.2). Then, the cell suspensions were loaded on 1.5% agarose pads and analyzed by DeltaVision Elite microscope (Applied Precision; [Zhao and Kuipers, 2021]).
GraphPad Prism 7.0 was used to fit the data of time-killing assay, DiSC3(5) assay, fluorescence quenching assay, ITC assay, and CF Leakage assay in Figures 3–7. The fluorescence images (ratio of membrane permeabilized cells) were quantified by the software Adobe Photoshop 2021. The Kd values of brevibacillins to Lipid II were calculated using the Nano Analyze Software (Waters LLC). The statistical significance of the data was assessed using Duncan’s multiple range test with the software SPSS Statistics 26; values of p < 0.05 were considered to be statistically significant.
Figure 7 Brevibacillins disrupt membrane permeability without the need for Lipid II binding. (A), Cartoon schematic of the assay used to assess membrane permeability disruption of brevibacillins. (B), CF releases (%) vs. time graph showing the effects of adding brevibacillins to DOPC-LUVs with 0.1% Lipid II; peptide concentrations were 100 nm; a, when peptides were added; and b, when 20% Triton X-100 added. (C), CF releases (%) vs. time graph showing the effects of adding brevibacillins to LUVs of pure DOPC; peptide concentrations were 100 nm; a, when peptides were added; and b, when 20% Triton X-100 was added. (D), fluorescence microscopic images of S. aureus (MRSA) after have been treated by a series concentrations of brevibacillins and nisin for 15 min. (E), the ratio of membrane permeabilized cells that was quantified by Adobe Photoshop 2021; the data are representative of three independent experiments.
To investigate the in vivo membrane disruption capacity of brevibacillin and brevibacillin 2V, a membrane permeability assay was performed with a series of concentrations of antibiotics. Nisin was used as a control.

[5] = tested on: Staphylococcus aureus (MRSA); details: ref Zhao et al., cited from earlier work; for MIC: Staphylococcus aureus (MRSA), Figure 1, 2021; for MIC (molar): strain not given, compared with CF leakage concentration, 2021 (MIC source, b3)
From the text: Figure 1 Structures of brevibacillins. The red color indicates the more hydrophobic amino acid residues of brevibacillin V, brevibacillin and brevibacillin I relative to brevibacillin 2V. MIC, the minimum inhibitory concentration against Staphylococcus aureus (MRSA). HC50, the 50% human blood cell hemolysis concentration. CC50, the 50% cell (HepG2) toxicity concentration. […] LUVs-based CF leakage assay is widely used in the studies of the antibiotic mode of action ([Hasper et al., 2004]; [Smith et al., 2008]; [Slootweg et al., 2015]; [Bakhtiary et al., 2017]). Disruption of the vesicle membrane by certain compounds releases CF from the LUVs into the extra-vesicular milieu resulting in increased fluorescence signal (Figure ...

[6] = ref Zhao et al., 2021; cited from earlier work
[7] = ref Zhao et al., 2021; cited from earlier work; remark: listed apart in the source

Row | Substance | killing kinetics / capacity, in words ([1]; MHB, 37°C) | time to complete killing of all cells ([1]; 10 × MIC (nisin 40 μg/ml; brevibacillins 20 μg/ml), ≈ 5 × 10^6 cells per ml, MHB, 37°C, 220 rpm, triplicate) [h] | excimer fluorescence (about 490 nm) [2] | pyrene monomer fluorescence [2] | percentage of CF leakage, comparison in words ([3]; LUVs with 0.1% Lipid II) | membrane permeabilization (CF leakage), Lipid II containing LUVs [3] | membrane permeabilization capacity, comparison ([4]; 100 nM and 400 nM, ratio of membrane permeabilized cells, three independent experiments, p < 0.05) | concentration needed to permeabilize virtually all cellular membranes [4] | MIC [5] [µg/mL] | MIC (molar) [5] [µM] | rank order of calculated hydrophobicity [6] | bactericidal or bacteriostatic action ([1]; S. aureus (MRSA), 10 × MIC) | membrane permeabilization at 100 nM ([4]; 100 nM, versus untreated group) | stability in human plasma [7]
1 | Brevibacillin | intermediate killing capacity | ≤ 2 | no excimer fluorescence could be detected | decreased the monomer fluorescence | higher percentage of CF leakage than brevibacillin 2V | rapid membrane permeabilization | significantly (p < 0.05) higher membrane permeabilization capacity than brevibacillin 2V | a similar concentration of brevibacillin and brevibacillin 2V is needed | 2 | 1.3 | brevibacillin I > brevibacillin > brevibacillin V > brevibacillin 2V |  |  | 
2 | Brevibacillin 2V | slowest killing capacity among brevibacillins, with similar killing kinetics as nisin |  | no excimer fluorescence could be detected | decreased the monomer fluorescence |  | rapid membrane permeabilization |  | a similar concentration of brevibacillin and brevibacillin 2V is needed | 2 | 1.3 | brevibacillin I > brevibacillin > brevibacillin V > brevibacillin 2V | bactericidal antimicrobial agent | did not induce membrane permeabilization | good stability in human plasma
